The experiment concerns CCRF-CEM. Put plainly: Cytotoxicity against human CCRF-CEM cells. Type of experiment: functional, cell-based.

≈ marks a conversion by molar mass, not a printed value.

The results in this text go back to ChEMBL document CHEMBL1158863, “Oxidations of vincristine catalyzed by peroxidase and ceruloplasmin” (J Nat Prod, 1997).

Usually IC50 stands for the concentration needed to halve the response being measured. Low readings indicate greater potency in that assay, high ones weaker potency in that assay. With `CC[C@H](O)C[C@@H]1CN(C=O)CCc2c([nH]c3ccccc23)[C@@](C(=O)OC)(c2cc3c(cc2OC)N(C=O)[C@H]2[C@@](O)(C(=O)OC)[C@H](OC(C)=O)[C@]4(CC)C=CCN5CC[C@]32[C@@H]54)C1`, half-maximal inhibition (IC50) was put at 7.1 µg/mL (≈ 8.44 µM).
Regarding `CCC(=O)C[C@@H]1CN(C=O)CCc2c([nH]c3ccccc23)[C@@](C(=O)OC)(c2cc3c(cc2OC)N(C)[C@H]2[C@](O)(C(=O)OC)[C@H](OC(C)=O)[C@]4(CC)C=CCN5CC[C@]32[C@@H]54)C1` [CATHARININE], the IC50 was 7.7 µg/mL (≈ 9.33 µM).
With `CC[C@]1(O)C[C@@H]2CN(CCc3c([nH]c4ccccc34)[C@@](C(=O)OC)(c3cc4c(cc3OC)N(C)[C@H]3[C@@](O)(C(=O)OC)[C@H](OC(C)=O)[C@]5(CC)C=CCN6CC[C@]43[C@@H]65)C2)C1` [VINBLASTINE], the midpoint of inhibition, the IC50, lay at 0.03 µg/mL (≈ 0.037 µM).
`CC[C@]1(O)C[C@H]2CN(CCc3c([nH]c4ccccc34)[C@@](C(=O)OC)(c3cc4c(cc3OC)N(C=O)[C@H]3[C@@](O)(C(=O)OC)[C@H](OC(C)=O)[C@]5(CC)C=CCN6CC[C@]43[C@@H]65)C2)C1` [VINCRISTINE] registered an IC50 of 0.06 µg/mL (≈ 0.0727 µM).
